Key:
[1] = target: T1, PAF binding to dog platelets (Canis lupus familiaris, UniProt A0A8I3NSH0); experiment: PAF Radioreceptor Binding Assay (PAF Binding); settings: inhibition of 3H-PAF binding to dog platelets, 10 min, room temperature
T1 construct: from tissue; host or cells: washed platelets from citrate-treated dog blood
T1 sequence (A0A8I3NSH0 1-343): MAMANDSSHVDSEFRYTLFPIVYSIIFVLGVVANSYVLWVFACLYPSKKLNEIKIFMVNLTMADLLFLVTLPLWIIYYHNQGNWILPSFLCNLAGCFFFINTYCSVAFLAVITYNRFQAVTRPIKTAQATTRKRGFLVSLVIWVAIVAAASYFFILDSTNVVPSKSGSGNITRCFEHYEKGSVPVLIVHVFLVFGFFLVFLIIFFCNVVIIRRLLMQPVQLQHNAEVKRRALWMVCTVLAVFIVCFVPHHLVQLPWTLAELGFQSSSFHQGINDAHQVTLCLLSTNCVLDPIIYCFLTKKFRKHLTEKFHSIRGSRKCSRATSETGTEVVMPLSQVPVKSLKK
Method: (1) PAF Radioreceptor Binding Assay (PAF Binding)
Platelet rich plasma is prepared by centrifugation of citrate-treated dog blood. Acidification to pH 6.5 with 0.15M citric acid and centrifugation for 10 minutes at 1000×g yields a platelet pellet which is then washed by resuspension in EDTA-Phosphate Buffered Saline (PBS) and recentrifuged. The washed platelet preparation is adjusted to 2×10^7 platelets/50 μl in 0.1% bovine serum albumin-PBS.
To a 400 μl microfuge tube containing 50 μl silicone oil (specific gravity 1.023) is added buffer, PAF standard or analog, or an extract to bring the aqueous volume to 150 μl. 50 μl of ^3 H-PAF (10,000 cpm, 45 Ci/mM) is added followed by 2×10^7 dog platelets. After mixing, incubating for 10 minutes at room temperature, and centrifuging for 1 minute in a Beckman Microfuge B (8000×g), the pellet is removed by clipping off the tip of the tube, the platelets are solubilized with 200 μl of 50% methanol and counted in 10 ml of Aquasol. […] Results obtained with representative copounds of the present invention in this assay are summarized hereinafter in Tables I and II. IC50 is drug concentration (μMolar) which inhibits PAF binding to dog platelets by 50%.

TXA2 synthase = target: T2, TXA2 synthase (Homo sapiens, UniProt P24557); experiment: Thromboxane Synthase Inhibition, In Vitro (TXA2 Synth. Inhib.); format: biochemical; settings: human platelet microsomes, 10 μM 14C-PGH2, 22° C., 2 min
T2 construct: using microsomal fractions from human platelets as enzyme source; from tissue; host or cells: microsomal fractions from human platelets
T2 sequence (P24557 1-533): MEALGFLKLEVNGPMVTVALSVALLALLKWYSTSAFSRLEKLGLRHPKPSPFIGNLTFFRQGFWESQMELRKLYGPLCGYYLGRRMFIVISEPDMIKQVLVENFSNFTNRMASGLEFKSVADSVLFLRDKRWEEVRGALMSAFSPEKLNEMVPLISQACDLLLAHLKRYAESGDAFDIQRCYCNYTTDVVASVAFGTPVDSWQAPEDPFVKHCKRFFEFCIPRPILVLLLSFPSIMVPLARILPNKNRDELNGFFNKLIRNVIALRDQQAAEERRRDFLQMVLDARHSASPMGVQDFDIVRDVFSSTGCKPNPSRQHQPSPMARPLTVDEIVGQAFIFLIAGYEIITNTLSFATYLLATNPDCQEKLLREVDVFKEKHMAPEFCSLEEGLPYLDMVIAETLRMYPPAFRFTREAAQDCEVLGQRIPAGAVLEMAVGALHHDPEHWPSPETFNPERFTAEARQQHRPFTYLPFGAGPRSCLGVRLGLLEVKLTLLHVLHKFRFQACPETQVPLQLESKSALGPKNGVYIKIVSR
Method: (2) Thromboxane Synthase Inhibition, In Vitro (TXA2 Synth. Inhib.)
TXA2 synthase activity is measured by following the conversion of ^14 C-prostaglandin endoperoxide (PGH2) to ^14 C-thromboxane A2 (TXA2) using microsomal fractions from human platelets as enzyme source. In the aqueous incubation medium, the TXA2 decomposes rapidly into TXB2. The amount of TXA2 synthase is adjusted so that under the conditions of the assay approximately 80-90% of the substrate, PGH2, is converted to product in control tubes. To prepare ^14 C-PGH2, ^14 C-AA (50-60 mCi/mmole; Rose Chem.) is incubated with sheep seminal vesicular gland microsomes for 1.5 minutes at 37° C. and then the ^14 C-PGH2 is extracted with diethylether, purified on columns oof Sephadex LH-20 or silicic acid, and stored in acetone at -70° C. Incubations are done as follows. Sufficient ^14 C-PGH2 to yield a final substrate concentration of 10 μM (30,000 cpm) is added to the incubation tubes and then the acetone is removed under nitrogen. The tubes are placed in an ice bath and then 215 μl of ice cold phosphate buffered saline, 10 μl of ethanol (control) or of test drug in ethanol, and 25 μl of the microsomal suspension are added with mixing in that order as rapidly as possible. The tubes are incubated at 22° C. for 2 minutes, the reaction is stopped and then the radioactive products and the unconverted PGH2 are extracted and analyzed by thin layer chromatography. […] The amount of ^14 C-PGH2 converted to products was used as a measure of TXA2 synthase activity. Inhibitors were tested initially at a final concentration 100 μM. Results obtained with representative compounds of the present invention in this assay are summarized hereafter in Tables I and II. IC50 is the drug concentration (μMolar) which inhibits TXA2 activity by 50%.

PAF [2] = experiment: Inhibition of PAF-Induced Platelet Aggregation (Inhib. of PAF Platelet Reduction); format: in vivo, guinea pig; settings: Cavia porcellus, iv, 3 mg/kg i.v.
Method: (5) Inhibition of PAF-Induced Platelet Aggregation (Inhib. of PAF Platelet Reduction)
Guinea pigs (anesthetized) are set up to withdraw blood for platelet counting. The animal is allowed to stabilize after completion of surgical procedures. The carotid catheter is allowed to bleed back blood and then is filled, prior to each sample withdrawal with sodium citrate 3.8% (0.15 ml). Blood (0.25 ml) is withdrawn 30 seconds prior to the PAF challenge and at 15, 30 and 60 seconds after the PAF challenge. This first PAF challenge is used as the control, assuming sufficient decreases in platelet count are observed. The amount of PAF used will be approximately 50 ng/kg, however, this can be increased to achieve the desired decreases in platelet count. Fifteen minutes after the control PAF challenge, intravenous drug dosing begins, with animals being dosed at 30 minute intervals; PAF challenge follows 15 minutes after each intravenous dose. Three intravenous drug doses are used in each experiment. Initial drug doses are 1, 3 and 10 mg/kg i.v. Inhibition of PAF platelet reduction at 3 mg/kg i.v. for representative compounds of the invention are summarized hereinafter in Tables I and II. Percent inhibition is [formula]

PAF [3] = experiment: Inhibition of PAF Induced Guinea Pig Bronchoconstriction Test (Inhib. of PAF Broncho.); format: in vivo, guinea pig (Hartley strain); settings: Cavia porcellus, iv; 1 mg/kg i.v. (1 min. pretreat)
Method: (3) Inhibition of PAF Induced Guinea Pig Bronchoconstriction Test (Inhib. of PAF Broncho.)
Male guinea pigs (Hartley strain) weighing 300 to 500 g are anesthetized with urethane (2 g/kg) intraperitoneally and a polyethylene cannula is inserted into the jugular vein for drug administration. Tracheal pressure is recorded from a cannula inserted in the trachea and connected to a Statham pressure transducer. Propranolol (0.1 mg/kg) is administered intravenously five minutes before challenge with synthetic PAF, the animal's skeletal muscles are then paralyzed with succinylcholine (1.2 mg/kg i.v.), and the animal is respirated using a Harvard small animal respirator operating at 40 breaths/min and 2.5 cc stroke volume. Under these conditions PAF induces a dose-dependent increase in ventilatory pressure over a dose range of 0.5 to 5 μg/kg i.v. For screening purposes animals are challenged with a single dose of PAF (10 μg/kg i.v.).
The peak increase in ventilatory pressure (cm H2 O) is recorded for three control animals and five drug-treated animals and the percent inhibition determined from the following formula [formula] Results obtained with representative compounds of the invention in this test are summarized hereinafter in Tables I and II.

Row | IC50 [1] [nM] | IC50 (TXA2 synthase) [nM] | Compound | inhibition in vivo at 3 mg/kg (PAF [2]) [%] | inhibition in vivo at 1 mg/kg (PAF [3]) [%]
1 | 200 | 1000 | CCCc1c(OCc2cccc(-c3nnnn3CCCc3cccnc3)c2)ccc(C(C)=O)c1O [1-[2-hydroxy-3-propyl-4-[[3-[1-[3-(3-pyridinyl)propyl]-1H-tetrazol-5-yl]phenyl]methoxy]phenyl]ethanone] |  | 
2 | 25 |  | CCCc1c(O)c(C(C)=O)cc(Cl)c1OCc1cccc(-c2nnnn2CCCc2cccnc2)c1 [1-[5-chloro-2-hydroxy-3-propyl-4-[[3-[1-[3-(3-pyridinyl)propyl]-1H-tetrazol-5-yl]phenyl]methoxy]phenyl]ethanone] | 25 | 43 ± 21
3 | > 1000 |  | CCCc1c(OCCCc2nnn(CCCc3cccnc3)n2)ccc(C(C)=O)c1O [3 3 3-pyridyl, 1-[2-hydroxy-3-propyl-4-[3-[2-[3-(3-pyridinyl)propyl]-2H-tetrazol-5-yl]propoxy]phenyl]ethanone] |  | 13 ± 7
4 | 1000 |  | CCCc1c(OCCCc2nnn(CCCCc3cccnc3)n2)ccc(C(C)=O)c1O [3 4 3-pyridyl, 1-[2-Hydroxy-3-propyl-4-[3-[2-[4-(3-pyridinyl)butyl]-2H-tetrazol-5-yl]propoxy]phenyl]ethanone] |  | 38 ± 14
5 | > 1000 |  | CCCc1c(OCCCCCc2nnn(Cc3cccnc3)n2)ccc(C(C)=O)c1O [5 1 3-pyridyl] |  | 
6 | > 1000 | 100 to 1000 | CCCc1c(OCCCCCc2nnn(CCCc3cccnc3)n2)ccc(C(C)=O)c1O [5 3 3-pyridyl, 1-[2-Hydroxy-3-propyl-4-[5-[2-[3-(3-pyridinyl)propyl]-2H-tetrazol-5-yl]pentyloxy]phenyl]ethanone] |  | 38 ± 11
7 | 480 | 100 to 1000 | CCCc1c(OCCCCCc2nnn(CCCCc3cccnc3)n2)ccc(C(C)=O)c1O [5 4 3-pyridyl, 1-[2-Hydroxy-3-propyl-4-[5-[2-[4-(3-pyridinyl)butyl]-2H-tetrazol-5-yl]pentyloxy]phenyl]ethanone] |  | 94 ± 6
8 | 140 | 1000 | CCCc1c(O)c(C(C)=O)cc(Cl)c1OCCCCCc1nnnn1CCCCc1cccnc1 [Cl H 5 4 3-pyridyl, 1-[5-chloro-2-hydroxy-3-propyl-4-[5-[1-[4-(3-pyridinyl)butyl]-1H-tetrazol-5-yl]pentyloxy]phenyl]ethanone] | 7 | 
9 | 250 | 10 to 100 | CCCc1c(OCCCc2nnnn2CCCc2cccnc2)ccc(C(C)=O)c1O [H H 3 3 3-pyridyl, 1-[2-Hydroxy-3-propyl-4-[3-[1-[3-(3-pyridinyl)propyl]-1H-tetrazol-5-yl]propoxy]phenyl]ethanone] |  | 53 ± 17
10 | 800 |  | CCCc1c(OCCCCCc2nnnn2Cc2cccnc2)ccc(C(C)=O)c1O [H H 5 1 3-pyridyl, 1-[2-Hydroxy-3-propyl-4-[5-[1-(3-pyridinyl)methyl-1H-tetrazol-5-yl]-pentyloxy]phenyl]ethanone] |  | 

Row | Compound | IC50 [1] [nM] | IC50 (TXA2 synthase) [nM] | inhibition in vivo at 3 mg/kg (PAF [2]) [%] | inhibition in vivo at 1 mg/kg (PAF [3]) [%]
11 | CCCc1c(OCCCCc2nnn(CCc3cccnc3)n2)ccc(C(C)=O)c1O [4 2 3-pyridyl, 1-[2-Hydroxy-3-propyl-4-[4-[2-[2-(3-pyridinyl)ethyl]-2H-tetrazol-5-yl]butoxy]phenyl]ethanone] | > 1000 |  |  | 
12 | CCCc1c(OCCCCc2nnn(CCCn3ccnc3)n2)ccc(C(C)=O)c1O [4 3 1-imidazolyl, 1-[2-Hydroxy-3-propyl-4-[4-[2-[3-(1H-imidazol-1-yl)propyl]-2H-tetrazol-5-yl]butoxy]phenyl]-ethanone] | > 1000 |  |  | 30 ± 15
13 | CCCc1c(OCCCCc2nnn(CCCc3cccnc3)n2)ccc(C(C)=O)c1O [4 3 3-pyridyl, 1-[2-Hydroxy-3-propyl-4-[4-[2-[3-(3-pyridinyl)propyl]-2H-tetrazol-5-yl]butoxy]phenyl]ethanone] | > 1000 |  |  | 55 ± 9
14 | CCCc1c(OCCCCCc2nnnn2CCCc2cccnc2)ccc(C(C)=O)c1OC(C)=O [H Ac 5 3 3-pyridyl, 1-[2-Acetoxy-3-propyl-4-[5-[1-[3-(3-pyridinyl)propyl]-1H-tetrazol-5-yl]pentyloxy]phenyl]ethanone] | 180 | 100 to 1000 | 31 | 84.8 ± 11
15 | CCCc1c(OCCCCc2nnnn2CCc2cccnc2)ccc(C(C)=O)c1O [H H 4 2 3-pyridyl, 1-[2-Hydroxy-3-propyl-4-[4-[1-[2-(3-pyridinyl)ethyl]-1H-tetrazol-5-yl]butoxy]phenyl]ethanone] | 1000 |  | 48 | -15 ± 6

From patent US4663332A, “5-substituted N-alkylated tetrazoles” (Hoffman-La Roche Inc., priority 1985, dated 1987)
